Legend:
stimulated THP-1 cells = test: In vitro phagocytic assay: phagocytosis of chilled platelets by THP-1 cells (FACS); format: cell-based, human; conditions: for inhibition of phagocytosis of platelets by phagocytic cells: up to 200 mM
Source text: As a first step toward evaluation of this strategy, we have developed an in vitro phagocytic assay to study the interaction between chilled platelets and mononuclear phagocytes. […] These measurements can be made with a fluorescence-activated cell sorter (FACS). […] None of these sugars had any effect on platelet aggregation induced by thrombin or by ristocetin. The latter result is particularly important, because it reflects platelet hemostatic function mediated by GPIb interaction with von Willebrand factor.
In these experiments (FIG. 11, 12, and 13) platelets were loaded with fluorescent dye CM-Orange, then incubated for 1 h at 22° C. (control), 4° C. (chilled) or exposed to UV (UV). Phagocytosis was quantified by measuring the incorporation of CM-orange-fluorescence (CM-Orange labeled platelets) into monocyte-sized cells. Bound versus ingested platelets were separated by labeling the cells after the phagocytic period with FITC-labeled anti-integrin-β3 (CD 61) antibodies, e.g., bound platelets will be FITC positive, ingested platelets will be negative. The uptake of control versus chilled platelets was compared. Chilled platelets are phagocytized because they fail to label with FITC-conjugated anti-β3 antibodies (CM-Orange positive), whereas control platelets are poorly ingested although some platelets are bound to the monocyte surface. From this experiment, the ratio of 22° C. to 4° C. ingested platelets (CM-Orange positive) can be calculated. […] These findings indicate that the cold platelet clearance differs from UV-induced clearance.

OG-permeant platelets = test: Actin filament barbed end exposure in chilled OG-permeabilized platelets; format: cell-based, human; conditions: OG-permeant platelets cooled
Method: We studied the biochemical and structural basis for the cold-induced shape transformation in human platelets and found it to require net actin assembly. To understand the signals involved in this process, we applied a permeabilization scheme to the cooling process that we have used to dissect PAR-1 mediated actin assembly. In this approach, platelets are first permeabilized with 0.25% octylglucoside (OG), then chilled to 4° C. for 5 min and rewarmed to 37° C. Resting platelets remained discoid at 37° C. after permeabilization with OG but changed shape when chilled. Chilled OG-permeant platelets have blebs on their surfaces and elaborate filopodial processes. […] Rewarming is required to assay filament end numbers, because we discovered that OG-treated platelets reseal in the cold, but become permeable again when rewarmed. We assayed the number of actin filament barbed ends biochemically by monitoring the acceleration of pyrene-actin polymerization rates fluorometrically in the presence and absence of CB (Hartwig, J. et al., Cell 82:643-653).

| Compound | inhibition of phagocytosis of platelets by phagocytic cells (stimulated THP-1 cells) | effect on barbed ends exposed upon cooling (OG-permeant platelets) | other results |
| --- | --- | --- | --- |
| O=C[C@H](O)[C@@H](O)[C@@H](O)[C@H](O)CO [D-galactose] | not | – | – |
| O=C[C@H](O)[C@@H](O)[C@H](O)[C@H](O)CO [D-glucose] | not | – | – |
| Nc1nc2c(ncn2[C@@H]2O[C@H](COP(=O)(O)OP(O)(O)=S)[C@@H](O)[C@H]2O)c(=O)[nH]1 [GDPβS] | – | no effect | – |
| Nc1nc2c(ncn2[C@@H]2O[C@H](COP(=O)(O)OP(=O)(O)OP(O)(O)=S)[C@@H](O)[C@H]2O)c(=O)[nH]1 [GTPγS] | – | no effect | – |
| CC(=O)N[C@H]1C(O)O[C@H](CO)[C@@H](O)[C@@H]1O (stereo partly drawn) [N-acetyl-D-glucosamine] | not | – | – |
| COC1OC(CO)C(O)C(O)C1O [α-methyl-D-glycoside] | – | – | inhibition of CM-Orange pellet phagocytosis by stimulated THP-1 cells (stimulated THP-1 cells; FIG. 11-13): concentration dependent inhibition |
| N17cdc42: negative dominant form of cdc42 GTPase | – | failed to inhibit | – |
